Laboratory results published in patent publication US8691986B2, “Azetidine and piperidine compounds useful as PDE10 inhibitors” (Amgen Inc., priority 2012, dated 2014).

Experiments:
[1] = target: human MDR1 (P-gp) (Homo sapiens (Human), UniProt P08183); assay: Transcellular transport in human MDR1-transfected LLC-PK1 cells; format: in vitro ADME; conditions: pH 7.4, MDR1-LLC-PK1, 5 μM test compound
Method: Digoxin and mannitol were purchased from Sigma-Aldrich (St. Louis, Mo.). 3H-digoxin and 14C-mannitol were purchased from PerkinElmer Life and Analytical Sciences (Boston, Mass.). Transport buffer was prepared using Hank's balanced salt solution (HBSS) supplemented with 10 mM Hepes, pH 7.4 and 0.1% BSA (HHBSS, Invitrogen, Grand Island, N.Y., BSA, Bovine Serum Albumin, Calbiochem, La Jolla, Calif.).
Cultures were incubated at 37° C. in a humidified (95% relative humidity) atmosphere of 5% CO2/95% air. The parental cell line LLC-PK1 (porcine renal epithelial cells) was purchased from American Type Culture Collection (ATCC, Manassas, Va.). Human MDR1 and Sprague-Dawley rat mdra1 transfectants in LLC-PK1 were generated at Amgen (Thousand Oaks, Calif.). Cells were cultured in Medium 199 supplemented with 2 mM L-glutamine, penicillin (50 units/mL), streptomycin (50 μg/mL), and 10% (v/v) fetal bovine serum (all from Invitrogen) (Schinkel et al, 1995).
LLC-PK1, MDR1-LLC-PK1, and mdr1a-LLC-PK1 cell monolayers were seeded onto porous (1.0 μm) polycarbonate 96-well transwell membrane filters (Millipore Corp., Billerica, Mass.) and cultured for six days with one media replacement on day four prior to transwell experiments. Cells were washed once with warmed HHBS prior to transwell experiments. Experiments were initiated by replacing the buffer in each compartment with 0.15 mL of HBSS containing 0.1% BSA with and without 5 μM of test compound in triplicate wells. The plates were incubated for two hours at 37° C. in an EVO incubator with shaking. Aliquots (100 μl) from both donor and receiver chambers were transferred to 96 well plates or scintillation vials. Protein was precipitated by addition of 200 μL acetonitrile containing 0.1% formic acid and prazosin (25 ng/mL) as internal standard. After vortexing and centrifugation at 3000 rpm for 20 min, 150 μL supernatant samples were transferred to a new plate containing 50 μL water for LC-MS/MS analysis. Transcellular transport of 3H-Digoxin was used as a positive control for Pgp. Paracellular permeability of 14C-Mannitol was used to measure the integrity of the monolayer. Sample radioactivity was measured using a liquid scintillation counter (Packard Tri-Carb 2910TR, PerkinElmer).
The apparent permeability coefficient (Papp) of all tested agents was estimated from the slope of cumulative amount (dQ) of the agent vs. time (dt), and the equation: Papp=(dQ/dt)/(A*C0)
where dQ/dt is the penetration rate of the agent […], A is the surface area of the cell layer on the Transwell (0.11 cm2), and CO is the initial concentration of the test compound (μM).

[2] = target: human PDE10A2 (Homo sapiens (Human), UniProt Q9Y233); assay: PDE10A enzyme inhibition, PDE IMAP TR-FRET assay; format: biochemical; conditions: FAM-cAMP substrate
Method: An IMAP TR-FRET assay was used to analyze the enzyme activity (Molecular Devices Corp., Sunnyvale Calif.). 10 μL of serial diluted PDE10A (BPS Bioscience, San Diego, Calif.) or tissue homogenate was incubated with equal volumes of diluted fluorescein labeled cAMP or cGMP for 90 min in 384-well Polypropylene assay plates (Greiner, Monroe, N.C.) at room temperature. After incubation, the reaction was stopped by adding 55 μL of diluted binding reagents and was incubated for 4 hours to overnight at room temperature. The plates were read on an Envision (Perkin Elmer, Waltham, Mass.) for time resolved fluorescence resonance energy transfer. The data were analyzed with Genedata Screener® (Lexington, Mass.).
To check the inhibition profile, 0.2 μL of serial diluted compounds were incubated with 10 μL of diluted PDE10 enzyme (BPS Bioscience, San Diego, Calif.) or tissue homogenate in a 384-well Polypropylene assay plate (Greiner, Monroe, N.C.) for 60 min at room temperature. After incubation, 10 μL of diluted fluorescein labeled cAMP or cGMP substrate was added and incubated for 90 min at room temperature. The reaction was stopped by adding 55 μL of diluted binding reagents and plates were read on an Envision (Perkin Elmer, Waltham, Mass.) for time resolved fluorescence resonance energy transfer. The data were analyzed with Genedata Screener® (Lexington, Mass.).
Purified human PDE2A1 and PDE10A2 enzymes were obtained from BPS Bioscience (San Diego, Calif.). IMAP™ TR-FRET progressive binding system, FAM-cAMP substrate were from Molecular Devices (Sunnyvale, Calif.).
The PDE IMAP assay was conducted in a 384-well black Greiner polypropylene plate (Sigma, St. Louis, Mo.). PDE inhibitors were serial diluted in 100% DMSO and dispensed into assay plate at […] per well using Echo® Liquid Handling System from LABCYTE. Ten μL of PDE enzyme in IMAP reaction buffer (10 mM Tris-HCl, pH 7.2, 10 mM MgCl2, 0.05% NaN3, and 0.01% Tween-20) was added into the assay wells. The PDE enzyme concentration used was based on each lot of enzyme activity, to ensure enzyme reaction falls in a linear range under assay condition. 1.4 nM of PDE2 or 8 μM PDE10 were used in the assay system. […] Enzyme reaction was allowed to proceed at room temperature for 90 min, and the reaction is stopped by 55 μl addition of binding reagent according to manufacturer's recommendation. The mixture is further incubated at room temperature for additional 4 hours, and signal was read on an Envision multimode reader (PerkinElmer). Fluorescence signals were measured at 520 nm and 485 nm. The signal ratio at 520/485 nm corresponded to the generation of reaction product of AMP, and it was used in all data analysis. Values from DMSO-treated wells were normalized to POC=100, and no-enzyme wells were normalized to POC=0. IC50 values were determined by using the Genedata Screener V9.0.1. The curve fitting algorithm used for dose response data analysis in Genedata Screener is a custom implementation of a robust curve-fitting algorithm called ROUT (Robust regression with outlier detection) and uses a four-parameter logistical (4 PL) Hill model.

Sequence of human MDR1 (P-gp) (P08183 whole entry): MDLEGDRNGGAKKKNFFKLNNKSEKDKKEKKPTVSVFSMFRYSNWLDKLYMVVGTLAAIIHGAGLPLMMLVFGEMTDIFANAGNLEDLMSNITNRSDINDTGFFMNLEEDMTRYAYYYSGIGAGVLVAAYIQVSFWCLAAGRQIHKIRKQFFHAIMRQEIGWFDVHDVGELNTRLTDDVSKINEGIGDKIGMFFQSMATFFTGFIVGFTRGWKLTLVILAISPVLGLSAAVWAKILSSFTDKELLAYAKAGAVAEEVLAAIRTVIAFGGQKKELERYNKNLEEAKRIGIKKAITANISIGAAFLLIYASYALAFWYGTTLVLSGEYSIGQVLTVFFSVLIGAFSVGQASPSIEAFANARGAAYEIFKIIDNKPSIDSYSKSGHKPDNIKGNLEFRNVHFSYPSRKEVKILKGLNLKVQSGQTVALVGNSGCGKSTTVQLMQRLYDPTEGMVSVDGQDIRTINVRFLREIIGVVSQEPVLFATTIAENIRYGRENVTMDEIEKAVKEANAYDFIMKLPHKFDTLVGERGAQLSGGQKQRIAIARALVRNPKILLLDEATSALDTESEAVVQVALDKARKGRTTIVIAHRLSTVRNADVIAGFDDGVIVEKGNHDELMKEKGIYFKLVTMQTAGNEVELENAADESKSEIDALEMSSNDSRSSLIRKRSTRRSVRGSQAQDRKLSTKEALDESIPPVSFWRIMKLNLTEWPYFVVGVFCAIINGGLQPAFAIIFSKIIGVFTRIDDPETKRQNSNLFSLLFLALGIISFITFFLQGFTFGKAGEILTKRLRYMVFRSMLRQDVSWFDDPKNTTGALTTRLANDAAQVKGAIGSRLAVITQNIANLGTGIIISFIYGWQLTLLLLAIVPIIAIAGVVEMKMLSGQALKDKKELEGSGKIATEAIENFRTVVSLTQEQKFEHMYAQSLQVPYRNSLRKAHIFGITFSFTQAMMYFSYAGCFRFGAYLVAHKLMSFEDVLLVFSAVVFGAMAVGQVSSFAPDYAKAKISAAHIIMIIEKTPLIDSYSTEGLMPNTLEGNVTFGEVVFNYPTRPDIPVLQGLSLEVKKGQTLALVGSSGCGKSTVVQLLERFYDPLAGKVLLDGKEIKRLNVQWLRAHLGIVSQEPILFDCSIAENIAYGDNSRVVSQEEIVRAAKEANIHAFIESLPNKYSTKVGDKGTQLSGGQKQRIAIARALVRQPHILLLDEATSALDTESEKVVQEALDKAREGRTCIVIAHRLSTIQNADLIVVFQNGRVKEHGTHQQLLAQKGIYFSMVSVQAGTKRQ
Sequence of human PDE10A2 (Q9Y233 267-1055): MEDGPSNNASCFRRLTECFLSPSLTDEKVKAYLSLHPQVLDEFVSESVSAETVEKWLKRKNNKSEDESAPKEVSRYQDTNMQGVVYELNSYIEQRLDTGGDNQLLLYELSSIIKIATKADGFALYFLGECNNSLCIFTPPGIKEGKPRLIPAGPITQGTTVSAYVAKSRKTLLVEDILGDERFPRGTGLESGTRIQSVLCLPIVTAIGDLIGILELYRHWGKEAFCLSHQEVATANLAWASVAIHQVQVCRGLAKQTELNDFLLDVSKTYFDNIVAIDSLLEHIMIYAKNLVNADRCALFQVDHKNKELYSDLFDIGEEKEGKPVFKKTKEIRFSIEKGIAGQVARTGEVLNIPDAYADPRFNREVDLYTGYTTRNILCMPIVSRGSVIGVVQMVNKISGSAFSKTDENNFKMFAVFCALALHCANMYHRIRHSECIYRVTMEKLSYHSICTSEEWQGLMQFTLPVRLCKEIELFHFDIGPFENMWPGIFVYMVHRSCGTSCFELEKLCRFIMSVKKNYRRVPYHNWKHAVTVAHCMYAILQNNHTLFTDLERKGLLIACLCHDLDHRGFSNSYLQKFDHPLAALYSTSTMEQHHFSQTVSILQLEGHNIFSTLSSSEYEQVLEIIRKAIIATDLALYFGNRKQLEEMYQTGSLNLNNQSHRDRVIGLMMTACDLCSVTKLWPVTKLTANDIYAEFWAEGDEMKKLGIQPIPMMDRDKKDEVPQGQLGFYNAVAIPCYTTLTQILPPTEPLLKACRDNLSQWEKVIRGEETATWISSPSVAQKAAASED

| Compound | efflux ratio at 2 h, 5 μM [1] | IC50 [2] |
| --- | --- | --- |
| CNC(=O)c1ccc(-c2nccnc2C2CN(c3ncc4cc(F)ccc4n3)C2)cc1F [Example 11, 2-Fluoro-4-(3-(1-(6-Fluoroquinazolin-2-Yl)Azetidin-3-Yl)Pyrazin-2-Yl)-N-Methylbenzamide] | 1.75 | 16.6 nM |
| CNC(=O)c1ccc(-c2nccnc2C2CN(c3ccc4ccccc4n3)C2)cc1F [Example 7, 2-Fluoro-N-Methyl-4-(3-(1-(Quinolin-2-Yl)Azetidin-3-Yl) Pyrazin-2-Yl)Benzamide] | 2.95 | 4 nM |
| CNC(=O)c1ccc(-c2nccnc2C2CN(c3ccc4cc(F)ccc4n3)C2)cc1F [Example 13, 2-Fluoro-4-(3-(1-(6-Fluoroquinolin-2-Yl)Azetidin-3-Yl) Pyrazin-2-yl)-N-Methylbenzamide] | 3.02 | 1.7 nM |
| CNC(=O)c1ccc(-c2nccnc2C2CN(c3ncc4ccccc4n3)C2)cc1F [Example 6, 2-Fluoro-N-Methyl-4-(3-(1-(Quinazolin-2-Yl)Azetidin-3-Yl)Pyrazin-2-Yl)Benzamide] | 1.8 | 7.6 nM |
| CNC(=O)c1ccc(-c2nccnc2C2CN(c3ncc4cc(F)c(Cl)cc4n3)C2)cc1F [Example 12, 4-(3-(1-(7-Chloro-6-Fluoroquinazolin-2-Yl)Azetidin-3-Yl)Pyrazin-2-Yl)-2-Fluoro-N-Methylbenzamide] | 1.85 | 3.9 nM |
| CNC(=O)c1ccc(-c2nccnc2C2CCN(c3ccc4ccccc4n3)CC2)cc1F [Example 3, 2-Fluoro-N-Methyl-4-(3-(1-(Quinolin-2-Yl)Piperidin-4-Yl)Pyrazin-2-Yl)Benzamide] | 2 | 3.1 nM |
| CNC(=O)c1ccc(-c2nccnc2C2CCN(c3ccc4ccc(F)cc4n3)CC2)cc1F [Example 2, 2-Fluoro-4-(3-(1-(7-Fluoroquinolin-2-Yl)Piperidin-4-Yl) Pyrazin-2-Yl)-N-Methylbenzamide] | 2.4 | 6.3 nM |

Next, values leading:

| efflux ratio at 2 h, 5 μM [1] | IC50 [2] | Compound |
| --- | --- | --- |
| 1.8 | 30.9 nM | CNC(=O)c1ccc(-c2nccnc2C2CN(c3ncc4ccc(F)cc4n3)C2)cc1F [Example 9, 2-Fluoro-4-(3-(1-(7-Fluoroquinazolin-2-Yl)Azetidin-3-Yl)Pyrazin-2-Yl)-N-Methylbenzamide] |
| 2.5 | 7.5 nM | CNC(=O)c1ccc(-c2nccnc2C2CCN(c3ccc4cccc(F)c4n3)CC2)cc1F [Example 5, 2-Fluoro-4-(3-(1-(8-Fluoroquinolin-2-Yl)Piperidin-4-Yl)Pyrazin-2-Yl)-N-Methylbenzamide] |
| 1.25 | 3.6 nM | CNC(=O)c1ccc(-c2nccnc2C2CN(c3ccc4ncc(Cl)cc4n3)C2)cc1F [Example 14, 4-(3-(1-(7-Chloro-1,5-Naphthyridin-2-Yl)Azetidin-3-Yl)Pyrazin-2-Yl)-2-Fluoro-N-Methylbenzamide] |
| 2.8 | 0.5 nM | CNC(=O)c1ccc(-c2nccnc2C2CN(c3ccc4ccc(F)cc4n3)C2)cc1F [Example 8, 2-Fluoro-4-(3-(1-(7-Fluoroquinolin-2-Yl)Azetidin-3-Yl) Pyrazin-2-Yl)-N-Methylbenzamide] |
| 2.9 | 28.7 nM | CNC(=O)c1ccc(-c2nccnc2C2CCN(c3ccc4ccc(Cl)cc4n3)CC2)cc1F [Example 1, 4-(3-(1-(7-Chloroquinolin-2-Yl)Piperidin-4-Yl)Pyrazin-2-Yl)-2-Fluoro-N-Methylbenzamide] |
| 3.4 | 2.8 nM | CNC(=O)c1ccc(-c2nccnc2C2CCN(c3ccc4cc(F)ccc4n3)CC2)cc1F [Example 4, 2-Fluoro-4-(3-(1-(6-Fluoroquinolin-2-Yl)Piperidin-4-Yl)Pyrazin-2-Yl)-N-Methylbenzamide] |
| 1.8 | 5.9 nM | CNC(=O)c1ccc(-c2nccnc2C2CN(c3ncc4ccc(Cl)cc4n3)C2)cc1F [Example 10, 4-(3-(1-(7-Chloroquinazolin-2-Yl)Azetidin-3-Yl)Pyrazin-2-Yl)-2-Fluoro-N-Methylbenzamide] |
